The values below come from US8470357B2, “Methods of treatment with Syk inhibitors” (Portola Pharmaceuticals, Inc., priority 2004, dated 2013).

Experiment [1] relates to leukocyte rolling on activated, collagen-adhering platelets. The experiment in a line: Recruitment of leukocytes to adherent, activated platelets under shear. Format: cell-based. The following applies: increasing concentrations; citrated human blood with 2.5 μM Integrilin, type III collagen, 10 minutes, shear 650/sec (FIG. 3). Here is the method: Briefly, human blood, anticoagulated with citrate in the presence of 2.5 μM Integrilin, was exposed for 10 minutes to type III collagen at a shear rate of 650/sec.

In experiment [2] the test system is leukocyte adhesion to IL-1β-activated human umbilical endothelial cells. The experiment in a line: Recruitment of leukocytes to activated endothelial cells under shear. Format: cell-based. The following applies: 25 or 50 μM; citrated human blood, IL-1β-activated endothelial cells, shear 650/sec (FIG. 4). An excerpt:
Briefly, cultured monolayers of human umbilical endothelial cells were activated by exposure to IL-1β for 24 hrs. Human blood, anticoagulated with citrate, was exposed to the activated endothelial cells at a shear rate of 650/sec for the time indicated.

Experiment [3] has as its system platelet thrombus formation on type III collagen. The experiment in a line: Platelet thrombus formation on type III collagen under shear. Format: cell-based, human. Here is the method: Briefly, unanticoagulated human blood was exposed to type III collagen for 4 minutes at a rate of shear (e.g., about 850/sec.) equivalent to that encountered in coronary arteries.

As for `CC(=O)N(C)c1ccc(Nc2nc(NC3CCC3)c3[nH]cnc3n2)cc1.Cl` [NVP-QAB205], the “inhibition of leukocyte rolling” value in experiment [1] was “caused inhibition of leukocyte rolling”. In experiment [2], the “inhibition of leukocyte adhesion to activated endothelial cells” value is “marked inhibition of leukocyte adhesion”. In experiment [3] (at 5, 10, and 25 μM (see FIG. 2)), the platelet adhesion result is recorded as “did not completely block platelet adhesion”. Also, the “inhibition of thrombus formation” value in experiment [3] (increasing concentrations, unanticoagulated human blood, type III collagen, 4 minutes, shear about 850/sec (FIG. 2)) is given as “caused inhibition of thrombus formation”.
